In PubChem BioAssay (NCI) one finds GI50 and TGI data, which are given here for seven compounds.

Test systems include NCI-H226 lung; MALME-3M melanoma; HOP-92 NSCLC; DU-145 prostate; A498 renal; SR leukemia; NCI-H23 lung; BT-549 breast; SK-MEL-2 melanoma; U251 CNS.
What all share (experiment): NCI tumour cell line growth inhibition, 48 h

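All cell lines were grown in 96-well plates and treated with compound for 48 hours. GI50 marks 50% less growth. The concentration for full growth arrest is given as TGI.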 A value given as a limit tells only on which side of the number the result lay.

As to `C[C@@H]1C[C@@H]([C@@H](CC2CC(=O)NC(=O)C2)OC(=O)CC(=O)c2ccccc2)C(=O)[C@@H](C)C1`, the GI50 with NCI-H226 lung was 0.686 µM; in the assay on MALME-3M melanoma, 0.496 µM; in the assay with HOP-92 NSCLC, 0.324 µM; with DU-145 prostate, 0.769 µM; in the assay with A498 renal, 0.177 µM; in the assay with SR leukemia it was 2.01 µM. Besides, the GI50 is 0.545 µM in the assay with NCI-H23 lung, 2.32 µM with BT-549 breast, 0.88 µM in the assay on SK-MEL-2 melanoma and 0.925 µM with U251 CNS. Further, the TGI in the assay on NCI-H226 lung was > 100 µM; in the assay on MALME-3M melanoma it was 13.6 µM; with HOP-92 NSCLC, > 24.9 µM; in the assay on DU-145 prostate, > 33.3 µM; with A498 renal it was 2.36 µM; in the assay with SR leukemia it was > 100 µM. In addition, the TGI was > 80.6 µM in the assay with NCI-H23 lung, 66.7 µM in the assay on BT-549 breast, 22.8 µM in the assay with SK-MEL-2 melanoma and > 100 µM in the assay on U251 CNS.
As for `CCn1c(O)c(/C=N/NC(=O)C(C)c2ccc(CC(C)C)cc2)sc1=S` (centres undefined), the GI50 in the assay with NCI-H226 lung is 0.797 µM; in the assay on MALME-3M melanoma, 0.331 µM; in the assay on HOP-92 NSCLC, 0.806 µM; in the assay with DU-145 prostate, 0.365 µM; with A498 renal, 0.243 µM; with SR leukemia it was 0.198 µM. Besides, the GI50 with NCI-H23 lung is 0.673 µM; in the assay on BT-549 breast, 0.98 µM; with SK-MEL-2 melanoma it was 3.19 µM; in the assay on U251 CNS, 0.399 µM. Further, the TGI is > 21.4 µM in the assay with NCI-H226 lung; > 43 µM in the assay with MALME-3M melanoma; 9.65 µM with HOP-92 NSCLC; > 22.1 µM in the assay on DU-145 prostate; 0.87 µM in the assay with A498 renal; > 100 µM with SR leukemia. Further, the TGI is > 41.1 µM with NCI-H23 lung, 10.3 µM in the assay on BT-549 breast, > 49.8 µM in the assay on SK-MEL-2 melanoma and > 38 µM with U251 CNS.
On to `CC1CC2CCCC(O)=C2C(=O)O1` (centres undefined), for which the TGI in the assay with NCI-H226 lung, in the assay with MALME-3M melanoma, in the assay on HOP-92 NSCLC, with DU-145 prostate, in the assay with A498 renal and in the assay on SR leukemia was > 100 µM in each case. Moreover, the TGI in the assay with NCI-H23 lung, with BT-549 breast, in the assay on SK-MEL-2 melanoma and in the assay with U251 CNS was > 100 µM in each case.
Take `CC(NCCC(c1ccccc1)c1ccccc1)c1ccccc1` (centres undefined): the GI50 with NCI-H226 lung is 2.78 µM; in the assay with MALME-3M melanoma, 1.75 µM; with HOP-92 NSCLC, 1.05 µM; with DU-145 prostate it was 3.09 µM; with A498 renal, 1.45 µM; in the assay with SR leukemia it was 1.92 µM. Further, the GI50 in the assay with NCI-H23 lung is 2.03 µM; in the assay with BT-549 breast, 5.42 µM; in the assay with SK-MEL-2 melanoma, 1.9 µM; in the assay on U251 CNS it was 1.59 µM. The TGI in the assay with NCI-H226 lung was found to be 13.8 µM; in the assay with MALME-3M melanoma, 3.44 µM; in the assay with HOP-92 NSCLC, 3.56 µM; with DU-145 prostate, 9.76 µM; with A498 renal, 3.93 µM; in the assay with SR leukemia, 5.26 µM. The TGI stood at 7.81 µM with NCI-H23 lung, 17.6 µM in the assay with BT-549 breast, 3.77 µM in the assay on SK-MEL-2 melanoma and 2.99 µM in the assay on U251 CNS.
Consider `N=c1c2c(-c3ccccc3)c(-c3ccccc3)n(Cc3ccccc3)c2ncn1C1CCC(O)CC1` (centres undefined), for which the GI50 with NCI-H226 lung is 0.517 µM; with MALME-3M melanoma, 0.389 µM; with HOP-92 NSCLC, 0.24 µM; in the assay with DU-145 prostate, 0.351 µM; in the assay with A498 renal, 0.345 µM; in the assay with SR leukemia it was 0.034 µM. Besides, the GI50 was 0.836 µM in the assay on NCI-H23 lung, 2.55 µM in the assay with BT-549 breast, 1.08 µM in the assay on SK-MEL-2 melanoma and 0.15 µM in the assay with U251 CNS. The TGI stood at 16.8 µM in the assay with NCI-H226 lung; 1.68 µM in the assay with MALME-3M melanoma; 4.33 µM with HOP-92 NSCLC; 15.3 µM in the assay with DU-145 prostate; 14.4 µM with A498 renal; 2.2 µM in the assay on SR leukemia. For the same compound, the TGI in the assay with NCI-H23 lung amounted to 22 µM; with BT-549 breast, 9.85 µM; in the assay on SK-MEL-2 melanoma it was 4.38 µM; with U251 CNS it was 5.3 µM.
`O=C(/C=C/c1ccc[nH]1)c1ccc(-n2ccc(C(F)(F)F)n2)cc1`: the TGI in the assay on NCI-H226 lung, with MALME-3M melanoma, in the assay with HOP-92 NSCLC, with DU-145 prostate, in the assay with A498 renal and in the assay with SR leukemia was > 100 µM in each case. In addition, the TGI is > 100 µM with NCI-H23 lung, 2.5 µM in the assay with BT-549 breast, > 100 µM in the assay with SK-MEL-2 melanoma and > 100 µM with U251 CNS. Moreover, the GI50 is > 100 µM with MALME-3M melanoma; > 100 µM in the assay with HOP-92 NSCLC; > 100 µM in the assay with DU-145 prostate; > 100 µM in the assay on A498 renal; 9.15 µM in the assay on SR leukemia; > 100 µM in the assay with NCI-H23 lung. Moreover, the results for the GI50 in the assay on BT-549 breast, in the assay with SK-MEL-2 melanoma and with U251 CNS were 0.425 µM, > 100 µM and 5.55 µM, respectively.
For the compound `CC1(C)OC2C(CO[Si](C)(C)C(C)(C)C)OC(n3c(I)c(C#C[Si](C)(C)C)c(=O)[nH]c3=O)C2O1` (centres undefined), the GI50 in the assay with NCI-H226 lung was 17 µM; with MALME-3M melanoma, 4.62 µM; with HOP-92 NSCLC it was 0.0445 µM; with DU-145 prostate, 13 µM; in the assay with A498 renal, 32.2 µM; in the assay on SR leukemia, 1.42 µM. Besides, the GI50 is 18.2 µM in the assay on NCI-H23 lung, 13.2 µM in the assay on BT-549 breast, 3.78 µM in the assay on SK-MEL-2 melanoma and 19.4 µM in the assay on U251 CNS. For the same compound, the TGI with NCI-H226 lung was 34 µM; with MALME-3M melanoma, 18.6 µM; in the assay with HOP-92 NSCLC, 14.1 µM; in the assay with DU-145 prostate, 25.6 µM; in the assay with A498 renal, > 100 µM; with SR leukemia, 4.3 µM. In addition, the TGI in the assay on NCI-H23 lung was determined as 50.9 µM; in the assay on BT-549 breast it was 32.1 µM; with SK-MEL-2 melanoma, 16.7 µM; in the assay on U251 CNS, 65.7 µM.
